Values of other authors in US9808446B2, “Method for decreasing symptoms of alcohol consumption” (Alcobra Ltd., priority 2007, dated 2017).

Legend:
[1] = system: frontoparietal cortex; details: guinea pigs, brain
[2] = long term data
[3] = not given; remark: listed apart in the source

## Cc1ncc(CO)c(CO)c1O.O=C1CC[C@@H](C(=O)O)N1 [Metadoxine, pyridoxol L,2-pyrrolidon-5 carboxylate]
[1]
  level of GABA and acetylcholine in the frontoparietal cortex: increased
[2]
  safety for use by humans: safe
Lu Yuan et al.
  mean half life in human serum: about 0.8 hour
oral
  bioavailability: 60-80%
  oral absorption: fast
Oral and intravenous, without appreciable differences
  half life in human serum: 40 to 60 min
[3]; animal studies
  glutathione depletion in hepatic tissues: prevented
  oxidative stress in hepatic tissues: reduced
[3]; during chronic alcohol intake
  increased production of fatty acid esters in the liver: inhibited
